Laboratory results: US20130150354A1, “NEW SELECTIVE CCR2 ANTAGONISTS” (BOEHRINGER INGELHEIM INTERNATIONAL GMBH, priority 2011, published 2013)

Key:
human CCR5 = biological target: T1, human CCR5 (Homo sapiens, UniProt P51681); experiment: CCR5 receptor membrane binding assay (CHO (Gα16) human CCR5 membranes, [125I]RANTES, SPA beads); details: 6 h, read-out: hKi [nM] (CCR5)
T1 construct: expressed in transfected cells; host or cells: CHO cells co-expressing Gα16, grown under puromycin and zeocin selection; membrane preparation
T1 sequence (P51681 whole entry): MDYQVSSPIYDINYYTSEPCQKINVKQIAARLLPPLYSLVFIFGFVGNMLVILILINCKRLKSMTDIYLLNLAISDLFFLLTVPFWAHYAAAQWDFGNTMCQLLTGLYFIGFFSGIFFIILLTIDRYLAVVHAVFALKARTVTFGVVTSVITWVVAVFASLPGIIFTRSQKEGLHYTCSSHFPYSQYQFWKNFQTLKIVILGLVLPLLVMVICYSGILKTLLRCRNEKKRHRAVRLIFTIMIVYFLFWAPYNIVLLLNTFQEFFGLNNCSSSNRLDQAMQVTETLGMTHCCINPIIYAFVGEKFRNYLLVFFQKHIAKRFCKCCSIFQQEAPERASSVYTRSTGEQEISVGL
Protocol: The above exemplary substances have been tested for binding to CCR5 using a binding assay as outlined herein below:
CHO, (Gα16) human CCR5 cells were cultured under standardized conditions at 37° C. and 5% CO2 in a humidified incubator. CHO (Gα16) human CCR5 cells were cultivated in Ham's F12 (Invitrogen; #31765068) supplemented with 10 µg/ml Puromycin (Invitrogen; #A11139-03), 200 µg/ml Zeocin (Invitrogen; #45-0003) and 10% FCS (Gibco; #10500-064).
Membranes were prepared from CHO (Gα16) human CCR5 cells. Cells were cultured on […] plates (Nunc; #166508) 2-3 days before membrane preparation (usually 80-100 plates to obtain 80 mg protein).
Cells were scraped off the plates with a big scraper and washed with 2×5 ml ice cold Phosphate Buffer Saline (PBS; Invitrogen; #14040-174). Cell suspension was collected in a glass bottle (on ice). Cell suspension was harvested at 1400 rpm and 4° C. for 10 min and washed in PBS. Cell pellet was resuspended in 40 ml PBS with protease inhibitor mix ‘complete’ (Roche; #11873580001; 1 tablet/50 ml).
For gentle cell disruption the membrane preparation was performed by using a homogenizer (potter). Cells were homogenized for 5-10 min.
Membranes were centrifuged at 1000 rpm and 4° C. for 5 min. Supernatant (=membrane) was harvested in a new falcon tube and remaining cell pellet homogenized again for 5-10 min with PBS with protease inhibitor mix and centrifuged. Collected supernatant was centrifuged at 40000 rpm and 4° C. for 30 min to sediment the cell membranes.
The membranes were resuspended in 25 mM HEPES, 25 mM MgCl2, 1 mM CaCl2, 10% Glycerine for storage in aliquots at −80° C. Membranes were diluted to a concentration of 5 mg/ml (Bradford Assay).
[^125I]RANTES, Stock: 1825 Ci/mmol, 25 μCi (Bio Trend #A3-AI-676) was solved in 1000 μl assay buffer (100 mM NaCl; 10 mM MgCl2; 50 mM Tris-HCl; 1 mM EDTA; 0.1% BSA, pH 7.6), stored at −20° C.
CHO (Gα16) human CCR5 membrane were solved on ice and adjusted with assay buffer to a concentration of 2.5 μg/15 μl.
Amersham Biosciences PVT-WGA Beads (GE Healthcare; #RPNQ0001) were adjusted with assay buffer to a concentration of 8 mg/ml. For preparation of the membrane-bead-suspension, membranes and beads were incubated for 30 min at RT under rotation with a ratio of 1:2.
Test compounds dissolved in 100% DMSO to a concentration of 10 mM and are further diluted with 100% DMSO to 1 mM. All additional compound dilutions were obtained with assay buffer, final 1% DMSO. 7 μl compound dilution, 45 μl membrane-bead-suspension and 10 μl [^125I]RANTES (ca. 20000 cpm/10 μl) were incubated at RT. Bound radioactivity was determined by scintillation counter after 6 h. Determination of affinity of test compounds (dissociation constant Ki) is calculated by iterative fitting of experimental data using the “easy sys” program, which is based on law of mass action (Schittkowski K. (1994), Numerische Mathematik, Vol. 68, 129-142).

CCR2 = biological target: T2, CCR2 (Homo sapiens, UniProt P41597); experiment: CCR2 receptor membrane binding assay (THP-1 membranes, 125I-MCP-1, SPA beads); details: THP-1 cell membranes, 125I-MCP-1, 8 h; read-out: hKi [nM] (CCR2)
T2 construct: Membranes were prepared from THP-1 cells; endogenous in cells; host or cells: THP-1 (human acute monocytic leukaemia cells), membrane preparation
T2 sequence (P41597 1-360 isoform P41597-2): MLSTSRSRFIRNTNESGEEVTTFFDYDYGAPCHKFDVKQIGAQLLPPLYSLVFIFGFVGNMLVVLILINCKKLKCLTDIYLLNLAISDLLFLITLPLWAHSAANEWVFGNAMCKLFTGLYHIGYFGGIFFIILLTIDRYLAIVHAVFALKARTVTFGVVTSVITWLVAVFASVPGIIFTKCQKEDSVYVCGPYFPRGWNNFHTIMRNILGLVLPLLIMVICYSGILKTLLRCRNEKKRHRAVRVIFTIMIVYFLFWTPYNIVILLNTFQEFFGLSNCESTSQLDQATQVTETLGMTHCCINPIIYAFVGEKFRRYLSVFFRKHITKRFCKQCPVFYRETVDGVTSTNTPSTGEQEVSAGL
Protocol: The above exemplary substances have been tested for binding to CCR2 using a binding assay as outlined herein below:
THP-1 cells (human acute monocytic leukaemia cells) were cultured under standardized conditions at 37° C. and 5% CO2 in a humidified incubator. THP-1 cells were cultivated in RPMI 1640 medium (Gibco 21875) containing 1% MEM-NEAA (Gibso 11140) 2 mM L-glutamine, 1.5 g/L sodium bicarbonate, 4.5 g/L glucose, 10 mM HEPES and 1.0 mM sodium pyruvate, 90%; 10% fetal calf serum (FCS Gibco 10500-064).
Membranes were prepared from THP-1 cells. THP-1 cells were centrifuged at 300×g at 4° C. for 10 min. The cell pellet was resuspendet in Phosphate Buffer Saline (PBS, including 10 μM Pefabloc and a protease inhibitor mix ‘complete’, Boehringer Mannheim (1 tablet/50 ml)), to a concentration of […]. The membrane preparation was performed by disrupting the cells by nitrogen […] (at 50 bar, for 1 h) in a “Nitrogen Bombe” (Parr Instrument). Cell debris was removed by centrifugation (800×g at 4° C., 1 min). The supernatant was centrifuged at 80000×g, 4° C. for 30 min to sediment the cell membranes. Usually 50 mg of protein (Bradford assay) were yielded from 1×10E9 cells. The membranes were resuspendet in 25 mM HEPES, 25 mM MgCl2, 1 mM CaCl2, 10% Glycerine for storage in aliquots at −80° C. in 25 mM HEPES, 25 mM MgCl2, 1 mM CaCl2, 10% Glycerine and stored at −80° C.
Perkin Elmer NEX 332 Jod^125 MCP-1, Stock: 2200 Ci/mmol solved in 2000 μl assay buffer, stored at −20° C. THP-1 membrane were adjusted with 25 mM HEPES, pH 7.2; 5 mM MgCl2; 0.5 mM CaCl2; 0.2% BSA assay buffer to a concentration of 2.5 μg/15 μl. Amersham Biosciences PVT-WGA Beads (RPNQ0001) were adjusted with assay buffer to a concentration of 0.24 mg/30 μl. For preparation of the membrane-bead-suspension membranes and beads were incubated for 30 min at RT under rotation (60 rpm) with a ratio of 1:2. Test compounds dissolved in 100% DMSO to a concentration of 10 mM and are further diluted with 100% DMSO to 1 mM. All additional compound dilutions were obtained with assay buffer, final 1% DMSO. Compounds, membrane-bead-suspension and [^125]MCP-1 (ca. 25000 cpm/10 μl) were incubated. Bound radioactivity was determined by scintillation counter after 8 h. Determination of affinity of test compounds (dissociation constant hKi) is calculated by iterative fitting of experimental data using the “easy sys” program, which is based on law of mass action (Schittkowski K. (1994), Numerische Mathematik, Vol. 68, 129-142).

Row | SMILES | Ki (human CCR5) | Ki (CCR2)
1 | Cc1c(NCc2ccc(C(C)(C)C)cc2)nc(C(F)(F)F)nc1C(=O)N1CCC(N2CC3COCC3C2)CC1 (stereo not drawn) [Example 20] | 2610 nM | 69 nM
2 | Cc1c(C(=O)N2CCC(N3CCOC4COCCC43)CC2)ncnc1N1CCc2ccc(C(F)(F)F)cc2C1 (stereo not drawn) [Example 23] | 5820 nM | 17 nM
3 | COc1nc(Nc2cccc(C(F)(F)F)c2)c(C)c(C(=O)N2CCC(N3CCO[C@H]4COCC[C@H]43)CC2)n1 (single isomer, unassigned) [Example 36a] | 1550 nM | 7 nM
4 | Cc1c(Nc2ccc(Cl)c(Cl)c2)nc(C2CC2)nc1C(=O)N1CCC(N2CCO[C@@H]3COCC[C@@H]32)CC1 (single isomer, unassigned) [Example 35b] | 1350 nM | 9 nM
5 | Cc1c(NC[C@H]2CCC[C@@H](c3ccc(C(F)(F)F)cc3)O2)ncnc1C(=O)N1CCC(N2CCO[C@@H]3COCC[C@@H]32)CC1 [Example 1] | 1770 nM | 15 nM
6 | COc1nc(NCc2ccc(C(C)(C)C)cc2)c(C)c(C(=O)N2CCC(N3CC4COCC4C3)CC2)n1 (stereo not drawn) [Example 19] | 4030 nM | 58 nM
7 | Cc1c(C(=O)N2CCC(N3CCO[C@@H]4COCC[C@@H]43)CC2)ncnc1N1COc2ccc(C(F)(F)F)cc2C1 (single isomer, unassigned) [Example 41] | 460 nM | 2 nM
8 | Cc1c(NCc2ccc(C(C)(C)C)cc2)ncnc1C(=O)N1CCC(N2CC3COCC3C2)CC1 (stereo not drawn) [Example 45] | 4110 nM | 36 nM
9 | Cc1ccc([C@@H]2CCC[C@H](CNc3ncnc(C(=O)N4CCC(N5CCOC6COCCC65)CC4)c3C)O2)cc1 (stereo partly drawn) [Example 22] | 1170 nM | 15 nM
10 | Cc1c(Nc2cccc(C(F)(F)F)c2)nc(C2CC2)nc1C(=O)N1CCC(N2CCO[C@H]3COCC[C@H]32)CC1 [Example 29] | 960 nM | 1 nM
11 | Cc1c(NC[C@H]2CCC[C@@H](c3ccc(OC(F)(F)F)cc3)O2)ncnc1C(=O)N1CCC(N2CCO[C@@H]3COCC[C@H]32)CC1 (single isomer, unassigned) [Example 34] | 1140 nM | 26 nM
12 | COc1nc(Nc2cccc(C(F)(F)F)c2)c(C)c(C(=O)N2CCC(N3CCO[C@@H]4COCC[C@@H]43)CC2)n1 (single isomer, unassigned) [Example 36b] | 2100 nM | 42 nM

Stronger by Ki (human CCR5), values ahead:

Row | Ki (human CCR5) | Ki (CCR2) | SMILES
13 | 420 nM | 0.6 nM | Cc1c(C(=O)N2CCC(N3C[C@H]4C[C@@H](N(C)S(C)(=O)=O)C[C@H]4C3)CC2)ncnc1N1CCc2ccc(C(F)(F)F)cc2C1 [Example 7]
14 | 390 nM | 0.9 nM | COc1nc(Nc2ccc(Cl)c(Cl)c2)c(C)c(C(=O)N2CCC(N3CCO[C@H]4COCC[C@H]43)CC2)n1 [Example 28]
15 | 300 nM | 1 nM | COc1nc(Nc2ccc(Cl)c(Cl)c2)c(C)c(C(=O)N2CCC(N3CCO[C@H]4COCC[C@H]43)CC2)n1 (single isomer, unassigned) [Example 37a]
16 | 260 nM | 3 nM | Cc1nc(Nc2ccc(Cl)c(Cl)c2)c(C)c(C(=O)N2CCC(N3CCO[C@H]4COCC[C@H]43)CC2)n1 (single isomer, unassigned) [Example 38a]
17 | 220 nM | 1 nM | Cc1c(NC[C@H]2CCC[C@@H](c3ccc(C(F)(F)F)cc3)O2)ncnc1C(=O)N1CCC(N2CC3CN(S(C)(=O)=O)CC3C2)CC1 (stereo partly drawn) [Example 12]
18 | 92 nM | 0.6 nM | Cc1c(Nc2ccc(Cl)c(Cl)c2)ncnc1C(=O)N1CCC(N2C[C@H]3C[C@@H](N(C)S(C)(=O)=O)C[C@H]3C2)CC1 [Example 10]
19 | 43 nM | 1 nM | Cc1c(NC[C@H]2CCC[C@@H](c3ccccc3)C2)ncnc1C(=O)N1CCC(N2CC3CN(S(C)(=O)=O)CC3C2)CC1 (stereo partly drawn) [Example 43]
20 | 15 nM | 0.8 nM | Cc1c(NC[C@H]2CCC[C@@H](c3ccccc3)C2)ncnc1C(=O)N1CCC(N2C[C@H]3C[C@@H](N(C)S(C)(=O)=O)C[C@H]3C2)CC1 [Example 11]
21 | 9 nM | 0.1 nM | Cc1c(NC[C@H]2CCC[C@@H](c3ccc(OC(F)(F)F)cc3)O2)ncnc1C(=O)N1CCC(N2C[C@H]3C[C@@H](N(C)S(C)(=O)=O)C[C@H]3C2)CC1 [Example 8]
